Tests used:
[1] = Appearance: 1 mL of water added to 1 mg of solid, and mixed; format: physicochemical
[2] = test system: MCF10A normal breast cells; assay: Cancer screening, MTT growth inhibition; format: cell-based; details: 72-h exposure; for inhibition at 25 µM / GI50: Homo sapiens, MCF-10A; for inhibition at 25 µM: read-out: MCF10A Breast (Normal), Percentage (%) Cell Growth Inhibition in response to 25 µM of Drug; for GI50: dose response, read-out: MCF10A Breast (Normal), GI50 = Concentration (µM) that inhibits cell growth by 50%
Method: Two assays were run: the dose screen to ascertain cell growth inhibition in response to 25 µM of drug (on a blue background) and the dose response (GI50) (on a green background). For a discussion of BNCT as a radiotherapeutic modality, a rationalisation is provided here.
All test agents were prepared as stock solutions (20 mM) in dimethyl sulfoxide (DMSO) and stored at −20 °C. Cell lines used in the study included HT29, (colorectal carcinoma); U87, SJ-G2, (glioblastoma); MCF-7, (breast carcinoma); A2780 (ovarian carcinoma); H460 (lung carcinoma); A431 (skin carcinoma); Du145 (prostate carcinoma); BE2-C (neuroblastoma) and MiaPaCa-2 (pancreatic carcinoma); together with the one non-tumour derived normal breast cell line (MCF10A). All cell lines were incubated in a humidified atmosphere 5% CO2 at 37 °C. The cancer cell lines were maintained in Dulbecco’s modified Eagle’s medium (DMEM; Sigma, Australia) supplemented with foetal bovine serum (10%), sodium pyruvate (10 mM), penicillin (100 IUmL^−1), streptomycin (100 µg mL^−1), and L-glutamine (2 mM).
The non-cancer MCF10A cell line was maintained in DMEM/F12 (1:1) cell culture media, 5% heat inactivated horse serum, supplemented with penicillin (50 IUmL^−1), streptomycin (50 µg mL^−1), HEPES (20 mM), L-glutamine (2 mM), epidermal growth factor (20 ng mL^−1), hydrocortisone (500 ng mL^−1), cholera toxin (100 ng mL^−1), and insulin (10 mg mL^−1).
Growth inhibition was determined by plating cells in duplicate in medium (100 µL) at a density of 2500–4000 cells per well in 96-well plates. On day 0 (24 h after plating), when the cells are in logarithmic growth, medium (100 µL) with or without the test agent was added to each well. After a 72-h drug exposure, growth inhibitory effects were evaluated using the MTT (3-(4,5-dimethyltiazol-2-yl)-2,5-diphenyltetrazolium bromide) assay and absorbance read at 540 nm. The percentage growth inhibition was calculated at a fixed concentration of 25 µM, based on the difference between the optical density values on day 0 and those at the end of drug exposure. Each data point is the mean ± the standard error of the mean (SEM) calculated from three replicates, which were performed on separate occasions and separate cell line passages.

[3] = test system: β-D-mannosidase (from snail); assay: Glycosidase inhibition, Table 6 (Laboratory 1); format: biochemical
Description: (§1) The enzymes α-D-glucosidase (from yeast), β-D-glucosidases (from almond and bovine liver), α-D-galactosidase (from coffee beans), β-D-galactosidase (from bovine liver), α-D-mannosidase (from Jack bean), β-D-mannosidase (from snail), α-L-rhamnosidase (from Penicillium decumbens), α-L-fucosidase (from bovine kidney), trehalase (from porcine kidney), β-D-glucuronidases (from E. coli and bovine liver), amyloglucosidase (from A. niger), para-nitrophenyl glycosides, and various disaccharides were purchased from Sigma-Aldrich Co. (St. Louis, MO, USA).
(§2) Brush border membranes were prepared from the rat small intestine according to the method of Kessler et al., and were assayed at pH 6.8 for rat intestinal maltase using maltose. For rat intestinal maltase, porcine kidney trehalase, and A. niger amyloglucosidase activities, the reaction mixture contained maltose (25 mM) and the appropriate amount of enzyme, and the incubations were performed for 10–30 min at 37 °C. The reaction was stopped by heating at 100 °C for 3 min. After centrifugation (600× g; 10 min), the resulting reaction mixture was added to the Glucose CII-test Wako (Wako Pure Chemical Ind., Osaka, Japan). The absorbance at 505 nm was measured to determine the amount of the released D-glucose. Other glycosidase activities were determined using an appropriate para-nitrophenyl glycoside as substrate at the optimum pH of each enzyme. The reaction mixture contained the substrate (2 mM) and the appropriate amount of enzyme. The reaction was stopped by the addition of Na2CO3 (400 mM). The released para-nitrophenol was measured spectrometrically at 400 nm. All reactions run in methanol.

α-D-glucosidase (rice) = α-D-glucosidase (rice) (Oryza sativa subsp. japonica, UniProt Q653V7); assay: Glycosidase inhibition, Table 6 (Laboratory 1); format: biochemical
[4] = biological target: T1, α-L-fucosidase (from bovine kidney) (Bos taurus, UniProt Q2KIM0); assay: Glycosidase inhibition, Table 6 (Laboratory 1); format: biochemical
T1 construct: purchased Sigma-Aldrich Co
T1 sequence (Q2KIM0 23-468): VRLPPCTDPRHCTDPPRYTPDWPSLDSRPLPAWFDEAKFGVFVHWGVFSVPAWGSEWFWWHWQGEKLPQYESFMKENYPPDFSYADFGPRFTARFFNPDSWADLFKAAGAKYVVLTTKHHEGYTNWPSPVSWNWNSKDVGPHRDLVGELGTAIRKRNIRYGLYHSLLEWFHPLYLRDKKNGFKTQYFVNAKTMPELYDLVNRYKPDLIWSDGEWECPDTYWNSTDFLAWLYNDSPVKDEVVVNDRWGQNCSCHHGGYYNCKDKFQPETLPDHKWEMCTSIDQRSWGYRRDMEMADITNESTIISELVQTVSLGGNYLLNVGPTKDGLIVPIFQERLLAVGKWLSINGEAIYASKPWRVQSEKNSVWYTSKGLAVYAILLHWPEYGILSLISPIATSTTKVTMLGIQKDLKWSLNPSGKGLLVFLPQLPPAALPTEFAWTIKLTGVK
Description: as §1, §2

[5] = biological target: T2, α,α-trehalase (porcine kidney) (Sus scrofa, UniProt I3LIR5); assay: Glycosidase inhibition, Table 6 (Laboratory 1); format: biochemical
T2 construct: purchased Sigma-Aldrich Co
T2 sequence (I3LIR5 24-583): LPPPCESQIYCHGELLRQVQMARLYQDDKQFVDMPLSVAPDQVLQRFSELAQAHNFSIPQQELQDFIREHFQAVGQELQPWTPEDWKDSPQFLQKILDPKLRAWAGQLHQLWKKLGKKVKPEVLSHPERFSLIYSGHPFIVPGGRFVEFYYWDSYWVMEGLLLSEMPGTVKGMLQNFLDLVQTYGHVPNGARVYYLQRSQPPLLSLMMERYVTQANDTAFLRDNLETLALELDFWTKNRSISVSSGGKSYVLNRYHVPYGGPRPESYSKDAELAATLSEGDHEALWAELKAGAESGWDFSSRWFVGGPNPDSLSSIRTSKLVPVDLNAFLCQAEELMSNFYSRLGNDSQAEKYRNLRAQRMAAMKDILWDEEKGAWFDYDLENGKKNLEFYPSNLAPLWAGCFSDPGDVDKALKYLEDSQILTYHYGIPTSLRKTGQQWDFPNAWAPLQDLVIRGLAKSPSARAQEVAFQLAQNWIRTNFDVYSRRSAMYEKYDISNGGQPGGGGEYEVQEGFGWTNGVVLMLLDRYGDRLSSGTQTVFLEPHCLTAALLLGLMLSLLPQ
Description: as §1, §2

α-D-glucosidase (rice), sequence (Q653V7 34-885): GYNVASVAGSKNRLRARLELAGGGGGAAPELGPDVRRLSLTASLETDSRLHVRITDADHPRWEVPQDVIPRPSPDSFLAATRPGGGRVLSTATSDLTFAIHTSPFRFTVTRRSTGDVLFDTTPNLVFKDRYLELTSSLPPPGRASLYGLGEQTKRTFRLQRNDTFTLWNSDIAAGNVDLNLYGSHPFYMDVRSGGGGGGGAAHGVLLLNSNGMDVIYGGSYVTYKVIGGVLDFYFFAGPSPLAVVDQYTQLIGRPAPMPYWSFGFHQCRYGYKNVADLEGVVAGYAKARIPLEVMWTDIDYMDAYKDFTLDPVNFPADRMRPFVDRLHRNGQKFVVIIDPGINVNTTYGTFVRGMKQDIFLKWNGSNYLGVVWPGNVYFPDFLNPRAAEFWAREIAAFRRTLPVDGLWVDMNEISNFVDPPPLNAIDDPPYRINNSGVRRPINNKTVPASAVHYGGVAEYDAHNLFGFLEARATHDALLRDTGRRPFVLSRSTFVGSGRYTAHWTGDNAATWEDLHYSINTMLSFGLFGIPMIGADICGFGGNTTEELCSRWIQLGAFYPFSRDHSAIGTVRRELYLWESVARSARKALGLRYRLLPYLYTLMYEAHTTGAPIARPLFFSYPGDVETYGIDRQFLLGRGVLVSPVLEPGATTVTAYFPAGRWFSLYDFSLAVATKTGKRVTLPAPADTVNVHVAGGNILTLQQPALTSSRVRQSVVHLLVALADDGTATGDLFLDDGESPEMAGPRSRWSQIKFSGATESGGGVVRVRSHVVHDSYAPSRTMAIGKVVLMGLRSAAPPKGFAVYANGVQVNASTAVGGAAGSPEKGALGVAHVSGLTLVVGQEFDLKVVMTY

| Compound | Appearance [1] | inhibition at 25 µM [2] [%] | β-D-Mannosidase Snail, inhibition % at 100 μM [3] | inhibition at 100 µM (α-D-glucosidase (rice)) [%] | inhibition at 100 µM [5] [%] | inhibition at 1000 µM (α-D-glucosidase (rice)) [%] | inhibition at 1000 µM [4] [%] | inhibition at 1000 µM [5] [%] | β-D-Mannosidase Snail, inhibition % at 1000 μM [3] | GI50 [2] [µM] | other results |
| --- | --- | --- | --- | --- | --- | --- | --- | --- | --- | --- | --- |
| N[C@@H](Cc1ccc(B(O)O)cc1)C(=O)O [BPA, 4-borono-L-phenylalanine, reference compound] | Some in solution with undissolved sediment | 4 | ^c NI ^d (2.1%) | – | – | – | – | – | – | – | – |
| CC1(C)O[C@H]2O[C@H]3[C@@H]([C@H]2O1)N(Cc1ccccc1)C[C@H]3O [Compound 3, N-Benzyl-3,6-dideoxy-3,6-imino-1,2-O-isopropylidene-α-D-gulofuranose] | In solution | 9 | ^c NI ^d (2.7%) | 0 | 0 | – | – | – | – | – | inhibition at 100 µM [4]: 0% |
| OC1O[C@@H]2[C@H]([C@H]1O)N(Cc1ccccc1)C[C@H]2O (stereo partly drawn) [Compound 4, N-Benzyl-3,6-dideoxy-3,6-imino-D-gulofuranose] | In solution | 14 | – | – | – | 1.3 | 0.4 | 0 | ^a NI ^b (1.0%) | – | – |
| OC[C@H](O)[C@@H]1[C@H](O)[C@H](O)CN1Cc1ccccc1 [Compound 5, N-Benzyl-1,4-dideoxy-1,4-imino-L-gulitol] | In solution | 3 | ^c NI ^d (6.9%) | 0 | 0 | – | – | – | – | > 50 | – |
| N[C@@H](Cc1ccc(B(O)O)cc1)C(=O)O [^10B-BPA, reference compound] | Some in solution with undissolved sediment | – | ^c NI ^d (0.3%) | – | – | – | – | – | – | – | α-D-Glucosidase Rice, inhibition % at 100 μM (α-D-glucosidase (rice); 100 μM): ^c NI ^d (0%); MCF10A Breast (Normal), Percentage (%) Cell Growth Inhibition in response to 25 µM of Drug [2]: * <0%; α-L-Fucosidase Bovine Kidney, inhibition % at 100 μM ([4]; 100 μM): ^c NI ^d (0%); α,α-Trehalase Porcine Kidney, inhibition % at 100 μM ([5]; 100 μM): ^c NI ^d (0%) |
| CC1(C)O[C@H]2O[C@H]3[C@@H]([C@H]2O1)N(Cc1ccc(B2OC(C)(C)C(C)(C)O2)cc1)C[C@H]3O [para 6, N-(4-Methylphenylboronic acid pinacol ester)-3,6-dideoxy-3,6-imino-1,2-O-isopropylidene-α-D-gulofuranose] | Completely insoluble | 14 | ^c NI ^d (0%) | 0 | 0 | – | – | – | – | – | inhibition at 100 µM [4]: 0% |
| OB(O)c1ccc(CN2CC(O)C3OC(O)C(O)C32)cc1 [para 7, N-(4-Methylphenylboronic acid)-3,6-dideoxy-3,6-imino-D-gulofuranose] | In solution | 4 ± 2 | – | – | – | 0 | 0.8 | 0 | ^a NI ^b (4.1%) | > 50 | – |
| OC[C@H](O)[C@@H]1[C@H](O)[C@H](O)CN1Cc1ccc(B(O)O)cc1 [para 8, N-(4-Methylphenylboronic acid)-1,4-dideoxy-1,4-imino-L-gulitol] | In solution | 1 | – | – | – | 8.2 | 1.7 | 0 | ^a NI ^b (6.9%) | > 50 | – |
| borocaptate sodium [BSH, reference compound] | In solution | – | – | – | – | – | – | – | ^a NI ^b (19.2%) | – | α-D-Glucosidase Rice, inhibition % at 1000 μM (α-D-glucosidase (rice); 1000 μM): ^a NI ^b (0%); MCF10A Breast (Normal), Percentage (%) Cell Growth Inhibition in response to 25 µM of Drug [2]: * 8 ± 3%; α-L-Fucosidase Bovine Kidney, inhibition % at 1000 μM ([4]; 1000 μM): ^a NI ^b (0%); α,α-Trehalase Porcine Kidney, inhibition % at 1000 μM ([5]; 1000 μM): ^a NI ^b (4.2%) |

Reference: PMC12472391, “Borylated Five-Membered Ring Iminosugars: Synthesis, Spectroscopic Analysis, and Biological Evaluation for Glycosidase Inhibition and Anticancer Properties for Application in Boron Neutron Capture Therapy (BNCT)—Part 1” (Pharmaceuticals, 2025)
